Results: ChEMBL document CHEMBL4609985, “Superior inhibition of influenza virus hemagglutinin-mediated fusion by indole-substituted spirothiazolidinones” (Bioorg Med Chem, 2020)

Legend:
[1] = Cytotoxicity against MDCK cells assessed as reduction in cell viability after 4 days by MTS assay; type: cell-based, Canis lupus familiaris; details: dog
[2] = system: Influenza A virus H3N2; experiment: Antiviral activity against Influenza A virus H3N2 A/HK/7/87 infected in MDCK cells assessed as reduction in virus induced cytopathic effect after 4 days by microscopy based method; type: functional, organism-based; details: A/HK/7/87, MDCK, 96 h
[3] = system: Influenza A virus H3N2; experiment: Antiviral activity against IInfluenza A virus H3N2 A/HK/7/87 infected in MDCK cells after 4 days by MTS assay; type: functional, organism-based; details: A/HK/7/87, MDCK, 96 h
[4] = Cytotoxicity against MDCK cells assessed as minimum cytotoxic concentration after 4 days by MTS assay; type: cell-based, Canis lupus familiaris; details: dog
[5] = Inhibition of influenza H3N2 A/X-31 hemagglutinin 3 expressed in HeLa cells assessed as polykaryon formation preincubated for 15 mins and further incubated for 15 mins with acidic buffer containing compounds at pH 5.2 by giemsa staining based microscopic analysis; type: cell-based, Influenza A virus (A/X-31(H3N2)); details: Influenza A virus
[6] = Selectivity index, ratio of CC50 for MDCK cells to EC50 for antiviral activity against Influenza H3N2 A/HK/7/87 infected in MDCK cells after 4 days by MTS assay; type: toxicity, cell-based; details: dog, read-out: Ratio CC50/EC50

Row | SMILES | CC50 at 96 h [1] | EC50 [2] | EC50 [3] | MCC at 96 h [4] | EC50 [5] | selectivity ratio at 96 h [6]
1 | Cc1c(C(=O)NN2C(=O)CSC23CC(C)CC(C)(C)C3)[nH]c2ccc(Cl)cc12 (centres undefined) | > 100 µM | > 100 µM | > 100 µM | > 100 µM |  | 
2 | Cc1c(C(=O)NN2C(=O)CSC23CCCCC3)[nH]c2ccc(Cl)cc12 | > 100 µM | > 100 µM | > 100 µM | > 100 µM |  | 
3 | Cc1c(C(=O)NN2C(=O)C(C)SC23CCC(C(C)(C)C)CC3)[nH]c2ccc(Cl)cc12 (centres undefined) | 0.9 µM | > 100 µM | > 100 µM | ≥ 4 µM |  | 
4 | NC(=O)c1ncn([C@@H]2O[C@H](CO)[C@@H](O)[C@H]2O)n1 [RIBAVIRIN] | > 100 µM | 8.4 µM | 4.6 µM | ≥ 100 µM |  | 
5 | Cc1c(C(=O)NN2C(=O)C(C)SC23CCC(c2ccccc2)CC3)[nH]c2ccc(Cl)cc12 (centres undefined) | 2.3 µM | > 100 µM | > 100 µM | 1 µM |  | 
6 | Cc1c(C(=O)NN2C(=O)CSC23CCCCC3C)[nH]c2ccc(Cl)cc12 (centres undefined) | > 100 µM | > 100 µM | > 100 µM | ≥ 20 µM |  | 
7 | Cc1c(C(=O)NN2C(=O)CSC23CCCC(C)C3)[nH]c2ccc(Cl)cc12 (centres undefined) | > 100 µM | > 100 µM | > 100 µM | ≥ 100 µM |  | 
8 | Cc1c(C(=O)NN2C(=O)CSC23CCCC3)[nH]c2ccc(Cl)cc12 | > 100 µM | > 100 µM | > 100 µM | > 100 µM |  | 
9 | Cc1c(C(=O)NN2C(=O)C(C)SC23CCCCC3)[nH]c2ccc(Cl)cc12 (centres undefined) | 5.8 µM | 0.085 µM | 0.063 µM | ≥ 4 µM | 1.3 µM | 92
10 | Cc1c(C(=O)NN2C(=O)C(C)SC23CCCC3)[nH]c2ccc(Cl)cc12 (centres undefined) | > 100 µM | > 100 µM | > 100 µM | > 100 µM |  | 
11 | CC(C)(C)c1cc(O)ccc1O [E319] |  |  |  |  | 9.9 µM | 
12 | Cc1nc2sccn2c1C(=O)NN1C(=O)C(C)SC12CCC(C)CC2 (centres undefined) | > 100 µM | 5 µM | 3.2 µM | ≥ 100 µM | 1.1 µM | > 31
13 | Cc1c(C(=O)NN2C(=O)C(C)SC23CC(C)CC(C)(C)C3)[nH]c2ccc(Cl)cc12 (centres undefined) | 85 µM | > 100 µM | > 100 µM | 20 µM |  | 
14 | Cc1c(C(=O)NN2C(=O)CSC23CCC(c2ccccc2)CC3)[nH]c2ccc(Cl)cc12 (centres undefined) | 2.4 µM | > 100 µM | > 100 µM | 5 µM |  | 
15 | Cc1c(C(=O)NN2C(=O)C(C)SC23CCC(C)CC3)[nH]c2ccc(Cl)cc12 (centres undefined) | 2.8 µM | 0.063 µM | 0.045 µM | 0.87 µM | 2.1 µM | 62
16 | Cc1c(C(=O)NN2C(=O)CSC23CCC(C)CC3)[nH]c2ccc(Cl)cc12 (centres undefined) | > 100 µM | > 100 µM | > 100 µM | ≥ 100 µM |  | 
17 | CCC1CCC2(CC1)SCC(=O)N2NC(=O)c1[nH]c2ccc(Cl)cc2c1C (centres undefined) | 94 µM | > 100 µM | > 100 µM | ≥ 4 µM |  | 
18 | NC12CC3CC(CC(C3)C1)C2 [AMANTADINE] | > 200 µM | 3.8 µM | 1.2 µM | > 200 µM |  | 
19 | CCOC(=O)c1c(CSc2ccccc2)n(C)c2cc(Br)c(O)c(CN(C)C)c12 [UMIFENOVIR] |  |  |  |  | 40 µM | 
20 | Cc1c(C(=O)NN2C(=O)CSC23CCC(C(C)(C)C)CC3)[nH]c2ccc(Cl)cc12 (centres undefined) | 2.1 µM | > 100 µM | > 100 µM | 0.8 µM |  | 
21 | Cc1c(C(=O)NN2C(=O)C(C)SC23CCCCC3C)[nH]c2ccc(Cl)cc12 (centres undefined) | 88 µM | > 100 µM | > 100 µM | ≥ 20 µM |  | 
22 | CCCC1CCC2(CC1)SC(C)C(=O)N2NC(=O)c1[nH]c2ccc(Cl)cc2c1C (centres undefined) | 1.9 µM | > 100 µM | > 100 µM | 0.8 µM |  | 
23 | Cc1c(C(=O)NN2C(=O)C(C)SC23CCCC(C)C3)[nH]c2ccc(Cl)cc12 (centres undefined) | 33 µM | 0.031 µM | 0.023 µM | ≥ 4 µM | 1.4 µM | 1440
24 | CCC1CCC2(CC1)SC(C)C(=O)N2NC(=O)c1[nH]c2ccc(Cl)cc2c1C (centres undefined) | 1.5 µM | 0.0012 µM | 0.00077 µM | 3 µM | 0.88 µM | 1950
25 | CCCC1CCC2(CC1)SCC(=O)N2NC(=O)c1[nH]c2ccc(Cl)cc2c1C (centres undefined) | 1.3 µM | > 100 µM | > 100 µM | 0.8 µM |  | 
